Laboratory results from patent US20220257500A1, “USE OF A HYDRO-ALCOHOLIC EXTRACT OF EVENING PRIMROSE FOR HYDRATING SKIN AND INCREASING BARRIER FUNCTION” (L'OREAL, priority 2019, published 2022).

Legend:
Format in all cases: cell-based
Details in all cases: normal human epidermal keratinocytes, 24 h, normalised to GAPDH
[1] = test system: SPRR1A (small proline-rich protein 1A); assay: RT-qPCR analysis of gene expression, SPRR1A transcript
Description: (§1) Normal, human epidermal keratinocytes were used to conduct the study. Normal, human epidermal keratinocytes were seeded in 48-well culture plates and cultured in culture medium for 3 days at 37° C. under 5% CO2 with renewal of the culture medium after the first 24 hours of culture. After incubation, the culture medium was replaced by test medium (supplemented with 1.5 mM CaCl2) containing or not containing (control) the compounds to be tested, and the cells were incubated for 24 hours. All conditions were performed with n=2. After treatment, the culture media were removed and the cells rinsed twice with PBS (w/o CaCl2, w/o MgCl2). Total RNAs were isolated using a magnetic bead extraction kit, following the manufacturer's instructions (MagMAX™-96 Total RNA Isolation Kit, Ambion). Quantification of RNAs and quality control thereof were analysed using Labchip GX (Perkin Elmer). Expression of the selected transcripts was analysed by two-step quantitative PCR. First, the cDNAs were retro-transcribed from the RNAs using the Quantitect® Reverse transcription kit (QIAGEN) following the manufacturer's instructions. The quantitative PCR experiments were performed using a LightCycler® 480 Real-Time PCR System in 384-well plate (Roche) following the incorporation technique of SYBR®Green (Roche) (Table 4). The results are expressed as fold change (Fc) as compared with the non-treated control, after normalising relative expressions in relation to expression of a housekeeping gene (GAPDH). The expression of a gene is considered to be stimulated when it is multiplied at least by 1.5.

[2] = test system: LCE3D (late cornified envelope 3D); assay: RT-qPCR analysis of gene expression, LCE3D transcript
Description: as §1

[3] = test system: CNFN (cornifelin); assay: RT-qPCR analysis of gene expression, CNFN transcript
Description: as §1

[4] = test system: FLG2 (filaggrin 2); assay: RT-qPCR analysis of gene expression, FLG2 transcript
Description: as §1

Compound	SPRR1A Fold change vs Control (Fc) ([1]; 0.1 mg/mL) [fold change]	LCE3D Fold change vs Control (Fc) ([2]; 0.1 mg/mL) [fold change]	CNFN Fold change vs Control (Fc) ([3]; 0.1 mg/mL) [fold change]	FLG2 Fold change vs Control (Fc) ([4]; 0.1 mg/mL) [fold change]	SPRR1A Fold change vs Control (Fc) ([1]; 0.004 mg/mL) [fold change]	LCE3D Fold change vs Control (Fc) ([2]; 0.004 mg/mL) [fold change]	CNFN Fold change vs Control (Fc) ([3]; 0.004 mg/mL) [fold change]	FLG2 Fold change vs Control (Fc) ([4]; 0.004 mg/mL) [fold change]
O=c1c(O[C@@H]2O[C@H](CO)[C@H](O)[C@H](O)[C@H]2O)c(-c2ccc(O)c(O)c2)oc2cc(O)cc(O)c12 [Hyperoside, hyperoside]	0.64	0.61	0.61	0.5				
O=c1c(O[C@@H]2O[C@H](CO)[C@@H](O)[C@H](O)[C@H]2O)c(-c2ccc(O)c(O)c2)oc2cc(O)cc(O)c12 [Isoquercitrin, isoquercitrin]	0.57	0.47	0.54	0.9				
O=c1oc2c(O)c(O)cc3c(=O)oc4c(O)c(O)cc1c4c23 [Ellagic acid, ellagic acid]					0.96	0.51	0.64	1.22
oenothein B					1.07	0.87	0.76	1.36
O=c1c(O)c(-c2ccc(O)c(O)c2)oc2cc(O)cc(O)c12 [Quercetin, quercetin]	0.13	0.2	0.13	0.12				
O=C(O)[C@H]1O[C@@H](Oc2cc(O)c3c(=O)cc(-c4ccc(O)c(O)c4)oc3c2)[C@H](O)[C@@H](O)[C@@H]1O [Luteoline-7-O-glucuronide, luteoline-7-O-glucuronide]	0.41	0.44	0.42	0.4				
